Patent US8680113B2, “BMI-1 protein expression modulators” (PTC Therapeutics, Inc., priority 2008, dated 2014)

tested on: Bmi-1; assay: Sandwich ELISA Assay (Bmi-1 ELISA in HT-1080 cells); format: cell-based, human
Summary of the method: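 HT-1080 cells (8000/well) were treated with compounds in 0.5% final DMSO for 40-48 h at 37°C and then lysed. Bmi-1 in lysates was measured by sandwich ELISA: overnight capture at 4°C on mouse monoclonal, rabbit anti-Bmi-1 detection, HRP anti-rabbit, TMB. OD450 was read with an OD570 reference against a recombinant GST-Bmi-1 standard curve (0-8000 pg/mL).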

Row | IC50 [nM] | Molecule
1 | < 500 | COc1cccc(Nc2nc(-c3c(C)nc4c(Br)cccn34)cs2)c1 [Cpd 232, 4-(8-bromo-2-methylimidazo[1,2-a]pyridin-3-yl)-N-(3-methoxyphenyl)-1,3-thiazol-2-amine]
2 | < 500 | Cc1nc2c(Br)cccn2c1-c1csc(Nc2ccccc2Cl)n1 [Cpd 233, 4-(8-bromo-2-methylimidazo[1,2-a]pyridin-3-yl)-N-(2-chlorophenyl)-1,3-thiazol-2-amine]
3 | < 500 | COc1ccccc1Nc1nc(-c2c(C)nc3c(Br)cccn23)cs1 [Cpd 234, 4-(8-bromo-2-methylimidazo[1,2-a]pyridin-3-yl)-N-(2-methoxyphenyl)-1,3-thiazol-2-amine]
4 | < 500 | Cc1nc2c(Br)cccn2c1-c1csc(Nc2ccc3c(c2)OCO3)n1 [Cpd 235, N-(1,3-benzodioxol-5-yl)-4-(8-bromo-2-methylimidazo[1,2-a]pyridin-3-yl)-1,3-thiazol-2-amine]
5 | < 500 | COc1cccc(Nc2nc(-c3c(C)nc4ccc(F)cn34)cs2)c1 [Cpd 236, 4-(6-fluoro-2-methylimidazo[1,2-a]pyridin-3-yl)-N-(3-methoxyphenyl)-1,3-thiazol-2-amine]
6 | < 500 | Cc1ccc(Nc2nc(-c3c(C)nc4ccc(F)cn34)cs2)cc1 [Cpd 237, 4-(6-fluoro-2-methylimidazo[1,2-a]pyridin-3-yl)-N-(4-methylphenyl)-1,3-thiazol-2-amine]
7 | < 500 | Cc1nc2ccc(F)cn2c1-c1csc(Nc2c(Br)cccc2Br)n1 [Cpd 239, N-(2,6-dibromophenyl)-4-(6-fluoro-2-methylimidazo[1,2-a]pyridin-3-yl)-1,3-thiazol-2-amine]
8 | < 500 | Cc1nc2cc(Cl)ccn2c1-c1csc(Nc2ccc(Cl)cc2)n1 [Cpd 240, 4-(7-chloro-2-methylimidazo[1,2-a]pyridin-3-yl)-N-(4-chlorophenyl)-1,3-thiazol-2-amine]
9 | < 500 | COc1ccc(Nc2nc(-c3c(C)nc4cc(Cl)ccn34)cs2)cc1 [Cpd 241, 4-(7-chloro-2-methylimidazo[1,2-a]pyridin-3-yl)-N-(4-methoxyphenyl)-1,3-thiazol-2-amine]
10 | < 500 | Cc1nc2cc(Cl)ccn2c1-c1csc(Nc2ccc(N(C)C)cc2)n1 [Cpd 242, N′-[4-(7-chloro-2-methylimidazo[1,2-a]pyridin-3-yl)-1,3-thiazol-2-yl]-N,N-dimethylbenzene-1,4-diamine]
11 | < 500 | Cc1ccc(Nc2nc(-c3c(C)nc4cc(Cl)ccn34)cs2)cc1 [Cpd 243, 4-(7-chloro-2-methylimidazo[1,2-a]pyridin-3-yl)-N-(4-methylphenyl)-1,3-thiazol-2-amine]
12 | < 500 | CC(=O)c1ccc(Nc2nc(-c3c(C)nc4cc(Cl)ccn34)cs2)cc1 [Cpd 244, 1-(4-{[4-(7-chloro-2-methylimidazo[1,2-a]pyridin-3-yl)-1,3-thiazol-2-yl]amino}phenyl)ethanone]
13 | < 500 | COc1ccc(Nc2nccc(-c3cnc4ccccn34)n2)cc1 [Cpd 245, 4-(imidazo[1,2-a]pyridin-3-yl)-N-(4-methoxyphenyl)pyrimidin-2-amine]
14 | < 500 | Clc1cccc(Nc2nccc(-c3cnc4ccccn34)n2)c1 [Cpd 246, N-(3-chlorophenyl)-4-(imidazo[1,2-a]pyridin-3-yl)pyrimidin-2-amine]
15 | 500 to 1000 | Clc1ccccc1Nc1nccc(-c2cnc3ccccn23)n1 [Cpd 247, N-(2-chlorophenyl)-4-(imidazo[1,2-a]pyridin-3-yl)pyrimidin-2-amine]
16 | < 500 | Fc1ccc(Nc2nccc(-c3cnc4ccccn34)n2)cc1 [Cpd 248, N-(4-fluorophenyl)-4-(imidazo[1,2-a]pyridin-3-yl)pyrimidin-2-amine]
17 | < 500 | COc1cc(Br)c(Nc2nccc(-c3cnc4ccccn34)n2)c(Br)c1 [Cpd 249, N-(2,6-dibromo-4-methoxyphenyl)-4-(imidazo[1,2-a]pyridin-3-yl)pyrimidin-2-amine]
18 | < 500 | CC(=O)c1ccc(Nc2nccc(-c3cnc4ccccn34)n2)cc1 [Cpd 250, 1-(4-{[4-(imidazo[1,2-a]pyridin-3-yl)pyrimidin-2-yl]amino}phenyl)ethanone]
19 | < 500 | c1ccn2c(-c3ccnc(Nc4ccc5c(c4)OCO5)n3)cnc2c1 [Cpd 251, N-(1,3-benzodioxol-5-yl)-4-(imidazo[1,2-a]pyridin-3-yl)pyrimidin-2-amine]

Row | IC50 [nM] | Molecule
20 | < 500 | CCOc1ccc(Nc2nccc(-c3cnc4ccccn34)n2)cc1 [Cpd 252, N-(4-ethoxyphenyl)-4-(imidazo[1,2-a]pyridin-3-yl)pyrimidin-2-amine]
21 | < 500 | CCN(CC)c1ccc(Nc2nccc(-c3cnc4ccccn34)n2)cc1 [Cpd 253, N,N-diethyl-N′-[4-(imidazo[1,2-a]pyridin-3-yl)pyrimidin-2-yl]benzene-1,4-diamine]
22 | < 500 | CN(C)c1ccc(Nc2nccc(-c3cnc4ccccn34)n2)cc1 [Cpd 254, N′-[4-(imidazo[1,2-a]pyridin-3-yl)pyrimidin-2-yl]-N,N-dimethylbenzene-1,4-diamine]
23 | < 500 | Fc1cccc(Nc2nccc(-c3cnc4ccccn34)n2)c1 [Cpd 255, N-(3-fluorophenyl)-4-(imidazo[1,2-a]pyridin-3-yl)pyrimidin-2-amine]
24 | < 500 | Brc1cccc(Nc2nccc(-c3cnc4ccccn34)n2)c1 [Cpd 256, N-(3-bromophenyl)-4-(imidazo[1,2-a]pyridin-3-yl)pyrimidin-2-amine]
25 | < 500 | COc1cc(Br)c(Nc2nccc(-c3cnc4ncccn34)n2)c(Br)c1 [Cpd 257, N-(2,6-dibromo-4-methoxyphenyl)-4-(imidazo[1,2-a]pyrimidin-3-yl)pyrimidin-2-amine]
26 | < 500 | c1cnc2ncc(-c3ccnc(Nc4ccc5c(c4)OCO5)n3)n2c1 [Cpd 259, N-(1,3-benzodioxol-5-yl)-4-(imidazo[1,2-a]pyrimidin-3-yl)pyrimidin-2-amine]
27 | < 500 | COc1cccc(Nc2nccc(-c3cnc4ncccn34)n2)c1 [Cpd 260, 4-(imidazo[1,2-a]pyrimidin-3-yl)-N-(3-methoxyphenyl)pyrimidin-2-amine]
28 | < 500 | COc1ccc(Nc2nccc(-c3cnc4ncccn34)n2)cc1 [Cpd 261, 4-(imidazo[1,2-a]pyrimidin-3-yl)-N-(4-methoxyphenyl)pyrimidin-2-amine]
29 | < 500 | CCOc1ccc(Nc2nccc(-c3cnc4ncccn34)n2)cc1 [Cpd 262, N-(4-ethoxyphenyl)-4-(imidazo[1,2-a]pyrimidin-3-yl)pyrimidin-2-amine]
30 | < 500 | CCN(CC)c1ccc(Nc2nccc(-c3cnc4ncccn34)n2)cc1 [Cpd 263, N,N-diethyl-N′-[4-(imidazo[1,2-a]pyrimidin-3-yl)pyrimidin-2-yl]benzene-1,4-diamine]
31 | < 500 | CN(C)c1cccc(Nc2nccc(-c3cnc4ncccn34)n2)c1 [Cpd 264, N′-[4-(imidazo[1,2-a]pyrimidin-3-yl)pyrimidin-2-yl]-N,N-dimethylbenzene-1,3-diamine]
32 | 500 to 1000 | CN(C)c1ccc(Nc2nccc(-c3cnc4ncccn34)n2)cc1 [Cpd 265, N′-[4-(imidazo[1,2-a]pyrimidin-3-yl)pyrimidin-2-yl]-N,N-dimethylbenzene-1,4-diamine]
33 | < 500 | Fc1ccccc1Nc1nccc(-c2cnc3ncccn23)n1 [Cpd 266, N-(2-fluorophenyl)-4-(imidazo[1,2-a]pyrimidin-3-yl)pyrimidin-2-amine]
34 | < 500 | Fc1cccc(Nc2nccc(-c3cnc4ncccn34)n2)c1 [Cpd 267, N-(3-fluorophenyl)-4-(imidazo[1,2-a]pyrimidin-3-yl)pyrimidin-2-amine]
35 | < 500 | Fc1ccc(Nc2nccc(-c3cnc4ncccn34)n2)cc1 [Cpd 268, N-(4-fluorophenyl)-4-(imidazo[1,2-a]pyrimidin-3-yl)pyrimidin-2-amine]
36 | < 500 | Clc1cccc(Nc2nccc(-c3cnc4ncccn34)n2)c1 [Cpd 269, N-(3-chlorophenyl)-4-(imidazo[1,2-a]pyrimidin-3-yl)pyrimidin-2-amine]
37 | < 500 | Brc1ccc(Nc2nccc(-c3cnc4ncccn34)n2)cc1 [Cpd 270, N-(4-bromophenyl)-4-(imidazo[1,2-a]pyrimidin-3-yl)pyrimidin-2-amine]
38 | < 500 | CCc1nc2ncccn2c1-c1ccnc(Nc2ccc(Br)cc2)n1 [Cpd 271, N-(4-bromophenyl)-4-(2-ethylimidazo[1,2-a]pyrimidin-3-yl)pyrimidin-2-amine]

Row | Molecule | IC50 [nM]
39 | N-(4-ethoxyphenyl)-4-(2-methylimidazo[1,2-a]pyridin-3-yl)pyrimidin-2-amine [Cpd 128] | < 500
